Earlier results on two substances are cited in US4746505A, “Technetium radiodiagnostic fatty acids derived from bisamide bisthiol ligands” (President and Fellows of Harvard College, priority 1985, dated 1988).

For data set [1] the following is noted: mice.
For data set [2] the following is noted: at carrier-added (CA) and no-carrier-added (NCA) concentrations.

Regarding “^99m Tc-oxo[N,N'-ethylene-bis(2-mercapto)-[2'-(11-carboxyundecyl)]thio-acetamido]-technetate (+5) [^99m TcO(Undec)ema]”, the kidney activity result in data set [1] (at 5 min post-injection) is “relatively high kidney activity”. In data set [1] (over the first 30 min), the blood levels was 6-8 %/g.

With “oxo[N,N'-ethylenebis(2-mercapto-acetamido)]technetate (+5) [[TcO(ema)]^-]”, the stability in vitro result in data set [2] was “stable”. Under “at carrier-added (CA) and no-carrier-added (NCA) concentrations”, the stability in vivo entry is reported as “stable”. Besides, for the setting “in vivo”, the renal excretion entry is listed as “rapid renal excretion”.
